The subject of one data set is irradiated skin of pigs. Kind of data set: Gamma-radiation-induced dermatitis in mini-pigs, clinical skin reaction score. Format: in vivo, Gottingen mini-pigs. The source says: Male Gottingen mini-pigs (mean weight, 19 kg; range, 18-20 kg; age, 6-7 months), obtained from Institute of Animal Breeding and Genetics, University of Gottingen, Germany, were used in these experiments. The mini-pigs were provided with tap water and commercial laboratory piglet chow from Purina Germany (Purina laboratory pig chow-5085) containing crude protein, fat, fiber, and ash, as well as calcium, phosphorus, and moisture (14.5, 4, 5, 8, 0.55, 1, and 14%, respectively). In addition, no antibiotic supplements were used. All animal experiments were performed in compliance to The German Animal Welfare Act.
(§1) A formulation in accordance with embodiments of the present invention appropriate for topical administration was obtained by adding 200 mg of carbopol (Carbopol 934P; Lubrizol, USA) to 2.5 mL of distilled water and solubilizing 200 mg of 6OHM-6-HITC in 2 mL of ethanol. An appropriate amount of the ethanolic dispersion was transferred to the aqueous dispersion of carbopol. Methanol (1.25 mL) was mixed with 1 mL of ethanol and added to the 6OHM-6-HITC and carbopol mixture, which was gradually stirred, and carbopol was allowed to soak for 2 h. Triethanolamine (100 mg; Sigma-Aldrich, USA) was added to neutralize the carbopol solution and facilitate the formation of a gel, after which the pH was adjusted to 6.8. A vehicle cream was prepared using the same ingredients and identical methods as the cream, but 6OHM-6-HITC was omitted from the mixture. […] For topical treatment, 6OHM-6-HITC or the vehicle cream (concentration, 200 mg/cm^2) was spread on the irradiated skin of pigs twice daily for 35 days, and the first application was performed immediately after irradiation.
To observe the effects of gamma-radiation on the skin of mini-pigs (3 animals per group), the dorsal skin was irradiated. […]
The pigs were evaluated every week during the five weeks following the irradiation, and their skin reactions were scored using a clinical status scoring system. […]

Data set [1] is described as follows: Topical carbopol gel formulation: permeability and skin irritation. The following applies: pH 6.8. Here is the method: as §1

Each structure is given as a SMILES string.

Turning to `COc1cc2c(CCCCN=C=S)c[nH]c2cc1O` [6OHM-6-HITC], the “clinical changes of irradiated skin vs. vehicle-treated” value with irradiated skin of pigs (1 week after 50 Gy gamma irradiation, topical twice daily) was “similar”. For the same compound, the “severity of skin reaction vs. vehicle-treated irradiation group” value in the data set on irradiated skin of pigs (50 Gy gamma irradiation, topical twice daily for 35 days) was “decreased severity in the skin reaction”. Also, in the data set with irradiated skin of pigs (after 50 Gy gamma irradiation, topical twice daily), the “time at which beneficial effects on the dermatitis appeared” value is 2 weeks. In data set [1], the “permeability of 6OHM-6-HITC from topical gel formulation” value is “highest permeability” and the “skin irritation by topical gel formulation” value is “without causing skin irritation”.

(Values after patent US12178800B2, “Sulforaphane-melatonin-like compound” (priority 2018, dated 2024).)
